Counter-ions that a name gives are not always drawn.
Each compound was assayed against Bile salt export pump (Homo sapiens, UniProt O95342).
Format: ADME

| Compound | IC50 |
| --- | --- |
| NCC1OC(OC2C(CO)OC(OC3C(O)C(N)CC(N)C3OC3OC(CN)C(O)C(O)C3N)C2O)C(N)C(O)C1O (stereo unspecified) | > 1000 µM |
| CCCc1nn(C)c2c(=O)[nH]c(-c3cc(S(=O)(=O)N4CCN(C)CC4)ccc3OCC)nc12 | 16.4 µM |
| Cc1ccc(OC(C)(C)[C@H]2OC[C@@H](C/C=C\CCC(=O)O)[C@@H](c3cccnc3)O2)c([N+](=O)[O-])c1 | < 10 µM |
| O=C(O)CCCCC1CCSS1 (stereo not drawn) [LIPOIC ACID, ALPHA] | > 1000 µM |
| NC(=O)CN1CCCC1=O | > 1000 µM |
| N=C(N)NC(=O)c1nc(Cl)c(N)nc1N [AMILORIDE] | > 1000 µM |
| CCN(CC)Cc1cc(Nc2ccnc3cc(Cl)ccc23)ccc1O [AMODIAQUINE] | 77.8 µM |
| CN1C(=O)[C@@H](NC(=O)c2cc3ccccc3[nH]2)N=C(c2ccccc2)c2ccccc21 [DEVAZEPIDE] | < 10 µM |
| COc1c(N2C[C@@H]3CCCN[C@@H]3C2)c(F)cc2c(=O)c(C(=O)O)cn(C3CC3)c12 [MOXIFLOXACIN] | > 1000 µM |
| CC(=O)OCC(=O)C1(O)C(C)CC2C3CC(F)C4=CC(=O)C=CC4(C)C3C(O)CC21C (stereo unspecified) | 33.6 µM |
| CCCCOCCOCCOCc1cc2c(cc1CCC)OCO2 [PIPERONYL BUTOXIDE] | < 10 µM |
| Cc1cc2c(OCC(O)CNC(C)C)cccc2[nH]1 (stereo unspecified) [MEPINDOLOL] | 35.9 to 36 µM |
| O=C1CCC(N2C(=O)c3ccccc3C2=O)C(=O)N1 (stereo unspecified) [THALIDOMIDE] | > 1000 µM |
| C[C@H]1C[C@@](O)(c2csc(Sc3ccc4c(c3)CC(=O)N4C)c2)CCO1 | < 10.9 µM |
| CC(=O)Nc1ccccc1OC[C@@](C)(O)CNC1CCN(Cc2ccc(Cl)cc2)CC1 | 71.5 µM |
| N=C(N)N/N=C/c1c(Cl)cccc1Cl [GUANABENZ] | 344 µM |
| CCC[S+]([O-])CCCN(CC)CC(O)COc1ccc(C#N)cc1 (stereo unspecified) [ALMOKALANT] | 55.7 µM |
| BISMUTH SUBSALICYLATE | > 1000 µM |
| CC(O)(P(=O)(O)O)P(=O)(O)O [ETIDRONIC ACID] | > 1000 µM |
| CC(=O)OCC[N+](C)(C)C [ACETYLCHOLINE] | > 1000 µM |
| COc1ccc(Cc2nccc3cc(OC)c(OC)cc23)cc1OC [PAPAVERINE] | < 10 µM |
| O=C(CCCN1CCC(O)(c2cccc(C(F)(F)F)c2)CC1)c1ccc(F)cc1 [TRIFLUPERIDOL] | 19.7 µM |
| CC(=O)Nc1ccccc1OC[C@@H](O)CNC1CCN(Cc2ccc(Cl)cc2)CC1 | 55.6 µM |
| CCOC(=O)n1ccn(C)c1=S [CARBIMAZOLE] | > 1000 µM |
| N[C@H](Cc1cc(I)c(Oc2cc(I)c(O)c(I)c2)c(I)c1)C(=O)O | < 10 µM |
| O=C(CCCN1CC=C(n2c(=O)[nH]c3ccccc32)CC1)c1ccc(F)cc1 [DROPERIDOL] | < 10 µM |

| Compound | IC50 |
| --- | --- |
| CCc1ccc(CCOc2ccc(CC3SC(=O)NC3=O)cc2)nc1 (stereo unspecified) [PIOGLITAZONE] | 0.262 µM |
| C[C@@H]1C[C@H]2[C@@H]3CCC4=CC(=O)C=C[C@]4(C)[C@@]3(F)[C@@H](O)C[C@]2(C)[C@@]1(O)C(=O)CO [DEXAMETHASONE] | 102 µM |
| COc1ccc2cc(C(C)CO)ccc2c1 (stereo unspecified) | 97.6 to 98 µM |
| CCC1(c2ccccc2)NC(=O)N(C)C1=O (stereo unspecified) [MEPHENYTOIN] | > 1000 µM |
| C[C@@](O)(CS(=O)(=O)c1ccc(F)cc1)C(=O)Nc1ccc(C#N)c(C(F)(F)F)c1 [(S)-BICALUTAMIDE] | < 10 µM |
| CN(C)c1ncnc2c1ncn2C1OC(CO)C(N)C1O (stereo unspecified) | > 1000 µM |
| CCN1C(=O)NC(c2ccccc2)C1=O (stereo unspecified) [ETHOTOIN] | > 792 µM |
| O=C(CCCN1CCC2(CC1)C(=O)NCN2c1ccccc1)c1ccc(F)cc1 [SPIPERONE] | < 10 µM |
| CC(C)(C)NCC(O)COc1cccc2c1CCC(=O)N2 (stereo unspecified) [CARTEOLOL] | > 1000 µM |
| O=CN(O)[C@@H](CCCc1ncccn1)CS(=O)(=O)N1CCN(c2ccc(Cl)cn2)CC1 | < 10 µM |
| COc1ccc(Nc2ccn(-c3ccccc3)n2)cc1 | 23 µM |
| CCN(CC)C(=O)c1ccc(C(=C2CCNCC2)c2ccccc2)cc1 | 106 µM |
| CC(=O)Nc1cc([As](=O)(O)O)ccc1O [ACETARSONE] | > 1000 µM |
| Cc1n[nH]c(C)c1Cc1sc2c(c1C(=O)N1C[C@H](O)CO1)c(=O)n(C)c(=O)n2C(C)C | 703 µM |
| CCCc1c2nc(C(=O)O)cc(N(C)C(C)=O)c2cc2c(=O)cc(C(=O)O)oc12 | > 1000 µM |
| CCN(CC)CCCC(C)Nc1c2ccc(Cl)cc2nc2ccc(OC)cc12 (stereo unspecified) [QUINACRINE] | 101 µM |
| Nc1ccc(S(=O)(=O)Nc2ccc(Cl)nn2)cc1 [SULFACHLORPYRIDAZINE] | > 1000 µM |
| CC(=O)O[C@]1(C(C)=O)CC[C@H]2[C@@H]3C=C(C)C4=CC(=O)CC[C@]4(C)[C@H]3CC[C@@]21C [MEGESTROL ACETATE] | < 10 µM |
| CS(=O)(=O)OCCCCOS(C)(=O)=O [BUSULFAN] | > 1000 µM |
| PHENYLMERCURIC ACETATE | < 10 µM |
| CCC1C(=O)OCC1Cc1cncn1C (stereo unspecified) | > 1000 µM |
| C[C@H](CC(=O)Nc1c(Cl)ccc2nc(N3CC[C@H](N)C3)ccc12)c1ccccc1 | < 27 µM |
| COc1ccc(CN(CCN(C)C)c2ccccn2)cc1 [PYRILAMINE] | > 1000 µM |
| Cc1cc(-c2ccc(N3C[C@H](Cn4ccnn4)OC3=O)cc2F)on1 | > 1000 µM |
| CN1CCN(C2=Nc3cc(Cl)ccc3Nc3ccccc32)CC1 [CLOZAPINE] | 75.1 µM |
| CCc1cc(CC)c2oc(C(=O)O)cc(=O)c2c1O | 112 µM |

| Compound | IC50 |
| --- | --- |
| O=C(O)c1ccc(NC(=O)[C@H](Cc2ccc(O)cc2)NC(=O)c2ccccc2)cc1 [BENTIROMIDE] | 235 µM |
| O=C(NCC12CC3CC(CC(C3)C1)C2)c1cc(CN2CCNCC2)ccc1Cl | 124 µM |
| O=C(NO)C1(CS(=O)(=O)c2ccc(Oc3ccc(Cl)cc3)cc2)CCOCC1 [CTS-1027] | 23.4 µM |
| CCCCCCCCCCCCc1ccc(S(=O)(=O)Nc2nncs2)cc1 | 21 µM |
| NCCc1c[nH]cn1 [HISTAMINE] | > 1000 µM |
| COc1c(C(=O)O)n(Cc2ccc(Cl)c(Cl)c2)c2ccc(O)cc12 | 39.6 µM |
| O=C(O)c1cc2scnc2n1Cc1ccc(Cl)c(Cl)c1 | 22.4 µM |
| CC[N+](C)(C)Cc1ccccc1Br [BRETYLIUM] | > 1000 µM |
| Cc1cccc(C)c1NC(=O)[C@H]1CCCCN1C | > 1000 µM |
| CC(=O)Oc1ccc2c(c1)cc(C(=O)O)n2Cc1ccc(Cl)c(Cl)c1 | 55.2 µM |
| O=C(O)CCCCCCCNC(=O)c1ccccc1O [SALCAPROZIC ACID] | > 751 µM |
| Clc1ccc2c(c1)C(N1CCNCC1)=Nc1ccccc1O2 [AMOXAPINE] | 230 µM |
| COc1cc2nc(N3CCN(C(=O)c4ccco4)CC3)nc(N)c2cc1OC [PRAZOSIN] | 172 µM |
| CC(CNC1CCCCC1)OC(=O)c1ccccc1 (stereo unspecified) [HEXYLCAINE HYDROCHLORIDE] | 506 µM |
| c1ccc([C@H]2CN3CCSC3=N2)cc1 [LEVAMISOLE] | > 1000 µM |
| CCN(CC)CCNC(=O)c1ccc(NC(C)=O)cc1 [ACECAINIDE] | > 1000 µM |
| CSc1ccc2c(c1)N(CCC1CCCCN1C)c1ccccc1S2 (stereo unspecified) [THIORIDAZINE] | 24.3 µM |
| CCc1nc(N)nc(N)c1-c1ccc(Cl)cc1 [PYRIMETHAMINE] | 200 µM |
| O=C(O)CCn1c2c(c3ccccc31)C[C@H](NS(=O)(=O)c1ccc(F)cc1)CC2 [RAMATROBAN] | 62.4 µM |
| c1ccc2[nH]c(-c3nc4ccccc4[nH]3)nc2c1 | 31.3 µM |
| CCCSc1nc(N)c2ncn([C@@H]3O[C@H](COP(=O)(O)OP(=O)(O)C(Cl)(Cl)P(=O)(O)O)[C@@H](O)[C@H]3O)c2n1 | > 1000 µM |
| CC1=C(C/C=C(\C)CCCC(C)CCCC(C)CCCC(C)C)C(=O)c2ccccc2C1=O (stereo unspecified) | > 1000 µM |
| O=C(Nc1ccc(C(=O)O)c(O)c1)c1ccccc1 [BENZOYLPAS] | > 1000 µM |
| C=CC1CN2CCC1CC2C(O)c1ccnc2ccccc12 (stereo unspecified) | > 1000 µM |
| C[C@@H](COc1ccc(N2CCN(c3ccncc3)CC2)cc1)CC(=O)O | > 1000 µM |
| CCN(CC)CCOC(=O)C(Cc1cccc2ccccc12)CC1CCCO1 (stereo unspecified) [NAFRONYL] | < 11 µM |

| Compound | IC50 |
| --- | --- |
| CN(C)C(=O)Oc1cccc([N+](C)(C)C)c1 [NEOSTIGMINE] | > 1000 µM |
| Cc1ccc(NC(=O)c2cccc3c2oc2ccccc23)cc1NC(=O)c1cccc(CN2CCN(C)CC2)c1 | < 10 µM |
| CC1(C)O[C@@H]2C[C@H]3[C@@H]4C[C@H](F)C5=CC(=O)CC[C@]5(C)[C@H]4[C@@H](O)C[C@]3(C)[C@]2(C(=O)CO)O1 [FLURANDRENOLIDE] | 71.2 µM |
| COc1ccccc1O [GUAIACOL] | > 1000 µM |
| CCCNCC(O)COc1ccccc1C(=O)CCc1ccccc1 (stereo unspecified) [PROPAFENONE] | 53.7 µM |
| CCCc1c2c(cc3c(=O)cc(C(=O)O)oc13)CCCC2 [PROCROMIL] | 606 µM |
| CC1(C)Oc2ccc(C#N)cc2[C@@H](N2CCCC2=O)[C@@H]1O [LEVCROMAKALIM] | 353 µM |
| Cc1cc2cc(C(=O)NC3Cc4ccccc4N(C[C@@H](O)CO)C3=O)[nH]c2s1 (stereo partly specified) | < 11 µM |
| CC(Oc1ccccc1)C(=O)N[C@@H]1C(=O)N2[C@@H]1SC(C)(C)[C@@H]2C(=O)O (stereo partly specified) [PHENETHICILLIN] | < 10 µM |
| CCOC(N)=O | > 1000 µM |
| COc1c(OC)c(OC(C)=O)c2cc(Cl)ccc2c1OC(C)=O [LONAPALENE] | 14.4 µM |
| CCCc1ncc(-c2ccnc(Nc3ccc(S(=O)(=O)NCCOC)cc3)n2)n1C(C)C | < 10 µM |
| Cc1cc(C)nc(NS(=O)(=O)c2ccc(N)cc2)n1 [SULFAMETHAZINE] | > 1000 µM |
| C[C@]12CC[C@@H]3c4ccc(O)cc4CC[C@H]3[C@@H]1C[C@@H](O)[C@@H]2O [ESTRIOL] | > 1000 µM |
| O=C(O)CCC(=O)Nc1ccc(S(=O)(=O)Nc2nccs2)cc1 [SUCCINYLSULFATHIAZOLE] | > 1000 µM |
| Cc1onc(-c2ccccc2Cl)c1C(=O)N[C@@H]1C(=O)N2[C@@H]1SC(C)(C)[C@@H]2C(=O)O [CLOXACILLIN] | 41.6 µM |
| CCCCNc1cc(C(=O)O)cc(S(N)(=O)=O)c1Oc1ccccc1 [BUMETANIDE] | 526 µM |
| COC1C(OC(=O)/C=C/C=C/C=C/C=C/C(=O)O)CCC2(CO2)C1C1(C)OC1CC=C(C)C (stereo unspecified) | 25.6 µM |
| Clc1ccc(C(c2ccccc2Cl)C(Cl)Cl)cc1 (stereo unspecified) [MITOTANE] | < 10 µM |
| CC(C)(C)C(=O)CN1CC2CN(CCCNc3ccc(C#N)cc3)CC(C1)O2 | 514 µM |
| CC(C)[N+](C)(CCOC(=O)C1c2ccccc2Oc2ccccc21)C(C)C [PROPANTHELINE BROMIDE] | 291 µM |
| Cc1n[nH]c(C)c1Cc1sc2c(c1C(=O)N1C[C@H](O)CO1)c(=O)n(C)c(=O)n2CC(C)C | 248 µM |
| CCC(=O)NCC[C@@H]1CCc2ccc3c(c21)CCO3 [RAMELTEON] | 85 to 85.4 µM |

Reference: ChEMBL document CHEMBL4017441, “Mitigating the inhibition of human bile salt export pump by drugs: opportunities provided by physicochemical property modulation, in silico modeling, and structural modification” (Drug Metab Dispos, 2012)
